Experimental data: US20030212051A1, “Bile acid containing prodrugs with enhanced bioavailabilty” (priority 2003, published 2003)
Counter-ions that a name gives are not always drawn. Like-named read-outs stand apart in the source and are kept apart here.

Legend:
[1] = target: T1, human intestinal bile acid transporter (hIBAT) (Homo sapiens, UniProt Q12908); assay: Competitive inhibition of 3H-taurocholate uptake in COS-hIBAT cells; type: cell-based; conditions: for Ki: COS-7 cells transfected with hIBAT, HBSS with sodium, value (±SEM); for inhibition of 3H-taurocholate uptake / interaction with hIBAT (in words): COS-hIBAT cells, 0.25 μM 3H-taurocholate, valacyclovir 10 to 600 μM, atenolol 10 to 200 μM, glycine and taurine 50 to 200 μM, bile acids 1 to 100 μM
T1 construct: expressed in transfected cells; host or cells: COS-7 cells, transient transfection with pCMV5-hIBAT (LipofectAMINE 2000)
T1 sequence (Q12908 1-348): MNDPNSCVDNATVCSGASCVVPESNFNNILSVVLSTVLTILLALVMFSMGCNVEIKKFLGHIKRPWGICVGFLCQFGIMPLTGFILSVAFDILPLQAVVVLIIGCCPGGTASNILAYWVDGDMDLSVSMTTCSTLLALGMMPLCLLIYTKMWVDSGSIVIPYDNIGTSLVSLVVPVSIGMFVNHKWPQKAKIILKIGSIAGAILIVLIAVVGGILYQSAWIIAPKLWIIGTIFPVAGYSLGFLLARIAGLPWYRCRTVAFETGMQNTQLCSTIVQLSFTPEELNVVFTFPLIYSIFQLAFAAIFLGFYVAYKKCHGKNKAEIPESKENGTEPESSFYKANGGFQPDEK
Method: Cell dilutions are streaked on nutrient agar plates containing 50 μg/ml ampicillin, and incubated at 37° C. overnight. Isolated colonies are selected aseptically, and are used to inoculate a 200 ml nutrient broth culture containing 50 μg/ml ampicillin. […] After an isopropanol precipitation and ethanol wash, the DNA is reconstituted in 600 μl of sterile deionized water. […] Cells are transfected at 24 hours post seeding. For each well transfected, 0.8 μg hIBAT cDNA is combined with LipofectAMINE 2000 reagent and incubated at room temperature for 20 minutes to allow complexes to form. A volume of 100 μl of hIBAT-lipid complex is added to each well of cells.
Uptake studies are performed on COS-hIBAT cells at 24 hours post-transfection. […] Because bile acid transport is sodium dependent, this MHBSS approach allows for the simple modification of the uptake buffer to exclude all sources of sodium, and thus enables for a control uptake assay under sodium-free conditions.
Incubation conditions and analysis are performed as described for the Km and Vmax studies. The following equation (Formula 2) is used to estimate the Ki for a series of naturally occurring bile acids: [formula]
Inhibition studies are performed in triplicate.

[2] = tested on: Caco-2 monolayers; conditions: across Caco-2 monolayers; example value for reference marker; cited from earlier work
[3] = target: T2, human intestinal peptide transporter (PepT1) (Homo sapiens, UniProt P46059); conditions: stable lines of CHO/PepT1; cited from earlier work
T2 sequence (P46059 1-708): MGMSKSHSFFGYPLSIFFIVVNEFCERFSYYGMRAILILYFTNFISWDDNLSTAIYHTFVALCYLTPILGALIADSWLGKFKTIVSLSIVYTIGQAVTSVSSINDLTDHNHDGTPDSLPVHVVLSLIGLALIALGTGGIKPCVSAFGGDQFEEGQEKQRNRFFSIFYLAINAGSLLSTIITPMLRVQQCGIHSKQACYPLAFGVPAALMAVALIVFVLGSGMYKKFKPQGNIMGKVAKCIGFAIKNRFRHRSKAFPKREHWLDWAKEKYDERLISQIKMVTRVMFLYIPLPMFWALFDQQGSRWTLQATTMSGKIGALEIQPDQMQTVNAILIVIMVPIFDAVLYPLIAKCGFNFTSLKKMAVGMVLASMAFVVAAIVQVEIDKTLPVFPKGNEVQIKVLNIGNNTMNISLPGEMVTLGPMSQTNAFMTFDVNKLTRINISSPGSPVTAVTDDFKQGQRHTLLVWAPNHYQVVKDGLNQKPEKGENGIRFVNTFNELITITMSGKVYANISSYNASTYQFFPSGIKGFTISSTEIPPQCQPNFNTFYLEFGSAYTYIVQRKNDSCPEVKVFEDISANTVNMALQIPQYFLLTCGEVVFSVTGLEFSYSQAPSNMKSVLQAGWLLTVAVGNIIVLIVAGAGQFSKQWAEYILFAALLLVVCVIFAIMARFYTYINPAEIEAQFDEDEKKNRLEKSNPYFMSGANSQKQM

[4] = cited from earlier work
[5] = read-out: Ki, inhibition of 3H-taurocholate uptake

Compound: CC(C)[C@H](NC(=O)CC[C@@H](C)[C@H]1CC[C@H]2[C@@H]3[C@H](O)C[C@@H]4C[C@H](O)CC[C@]4(C)[C@H]3CC[C@]12C)C(=O)OCCOCn1cnc2c(=O)[nH]c(N)nc21 [acyclovir valylchenodeoxycholate]
- Ki [1, 5]: 35.6 µM

Compound: CC(C)C(NC(=O)CCC(C)C1CCC2C3CCC4CC(O)CCC4(C)C3CC(O)C12C)C(=O)OCCOCn1cnc2c(=O)[nH]c(N)nc21 (centres unmarked) [acyclovir valyldeoxycholate]
- Ki [1, 5]: 401 µM

Compound: C[C@H](CCC(=O)O)[C@H]1CC[C@H]2[C@@H]3[C@H](O)C[C@@H]4C[C@H](O)CC[C@]4(C)[C@H]3CC[C@]12C [chenodeoxycholate]
- Ki [1]: 5.4 µM

Compound: NCC(=O)O [glycine]
- inhibition of 3H-taurocholate uptake / interaction with hIBAT (in words) [1]: not reduced

Compound: C[C@H](CCC(=O)O)[C@H]1CC[C@H]2[C@@H]3CC[C@@H]4C[C@H](O)CC[C@]4(C)[C@H]3CC[C@]12C [lithocholate]
- inhibition of 3H-taurocholate uptake / interaction with hIBAT (in words) [1]: never reaches 50% maximal velocity

Compound: COCCc1ccc(OCC(O)CNC(C)C)cc1 (centres unmarked) [metoprolol tartrate]
- permeability [2]: 40 ×10⁻⁶ cm/s

Compound: NCCS(=O)(=O)O [taurine]
- inhibition of 3H-taurocholate uptake / interaction with hIBAT (in words) [1]: not reduced

Compound: CC(C)[C@H](N)C(=O)OCCOCn1cnc2c(=O)[nH]c(N)nc21 [valacyclovir]
- Ki [3]: 1100 µM
- bioavailability after oral administration [4]: 54%
- inhibition of 3H-taurocholate uptake / interaction with hIBAT (in words) [1]: no inhibition
- inhibition of 3H-taurocholate uptake / interaction with hIBAT (in words) ([1]; listed as Valacyclovir): do not inhibit
